{
  "source": "ChEMBL document CHEMBL1147034",
  "about": "“Synthesis and evaluation of 2',4',6'-trihydroxychalcones as a new class of tyrosinase inhibitors” (Bioorg Med Chem, 2007)",
  "data": [
    {"target": "T1, Tyrosinase (Agaricus bisporus) (UniProt O42713)", "T1 sequence (whole entry)": "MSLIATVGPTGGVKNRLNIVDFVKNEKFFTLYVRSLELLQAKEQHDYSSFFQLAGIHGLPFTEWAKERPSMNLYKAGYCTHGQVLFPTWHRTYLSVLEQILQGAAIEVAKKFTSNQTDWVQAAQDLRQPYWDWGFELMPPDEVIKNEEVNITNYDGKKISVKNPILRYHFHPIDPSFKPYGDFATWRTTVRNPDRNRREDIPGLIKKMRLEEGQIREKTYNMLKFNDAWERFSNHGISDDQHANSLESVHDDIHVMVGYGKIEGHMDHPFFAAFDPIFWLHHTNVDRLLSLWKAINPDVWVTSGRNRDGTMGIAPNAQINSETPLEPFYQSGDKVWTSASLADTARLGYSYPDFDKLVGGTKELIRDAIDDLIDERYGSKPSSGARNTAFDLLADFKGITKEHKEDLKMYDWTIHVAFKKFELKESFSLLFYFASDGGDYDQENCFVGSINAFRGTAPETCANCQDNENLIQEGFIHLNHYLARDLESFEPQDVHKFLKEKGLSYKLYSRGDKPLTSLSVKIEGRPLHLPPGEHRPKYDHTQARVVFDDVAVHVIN", "test": "Inhibition of mushroom tyrosinase at 400 uM", "units": {"inhibition": "%"}, "values": [
      {"smiles": "COc1cc(O)c(C(=O)/C=C/c2cc(O)c(O)c(O)c2)c(OC)c1", "inhibition": "< 20"},
      {"smiles": "O=C(/C=C/c1ccccc1)c1c(O)cccc1O", "inhibition": "< 20"},
      {"smiles": "O=C(/C=C/c1ccc(O)cc1O)c1c(O)cc(O)cc1O", "inhibition": 72},
      {"smiles": "O=C(/C=C/c1ccc(O)c(O)c1)c1ccc(O)c(O)c1", "inhibition": "< 20"},
      {"smiles": "COc1cc(O)c(C(=O)/C=C/c2cccc(O)c2O)c(OC)c1", "inhibition": "< 20"},
      {"smiles": "O=C(/C=C/c1ccc(O)c(O)c1)c1ccccc1O", "inhibition": "< 20"},
      {"smiles": "O=C(/C=C/c1ccccc1)c1ccc(O)cc1O", "inhibition": "< 20"},
      {"smiles": "COc1cc(O)c(C(=O)/C=C/c2ccc(O)c(O)c2)c(OC)c1", "inhibition": "< 20"},
      {"smiles": "O=C(/C=C/c1ccc(O)c(O)c1)c1c(O)cc(O)cc1O", "inhibition": "< 20"}
    ]},
    {"target": "T2, Tyrosinase (Agaricus bisporus, UniProt O42713)", "T2 sequence (O42713 whole entry)": "T1 sequence (whole entry)", "units": {"IC50": "µM", "Ki": "µM"}, "values": [
      {"smiles": "O=C(/C=C/c1ccc(O)cc1O)c1ccc(O)cc1O", "IC50": 5},
      {"smiles": "O=C(/C=C/c1ccc(O)cc1O)c1c(O)cc(O)cc1O", "IC50": 1, "Ki": 3.1},
      {"smiles": "COc1cc(O)cc(O)c1C(=O)/C=C/c1ccc(O)cc1O", "IC50": 3.1},
      {"smiles": "COc1ccc(/C=C/C(=O)c2c(O)cc(O)cc2O)cc1OC", "IC50": 150},
      {"smiles": "O=C(/C=C/c1cccc(O)c1O)c1c(O)cc(O)cc1O", "IC50": 193},
      {"smiles": "O=C(/C=C/c1cc(O)c(O)c(O)c1)c1c(O)cc(O)cc1O", "IC50": 200}
    ]}
  ]
}
